≈ marks a conversion by molar mass, not a printed value. Read-outs that look alike come from different tables or passages of the source.
Columns and labels:
[1] = Storage stability: total amount of related substances by HPLC (Experimental Example 1); type: physicochemical; details: stored at 40° C., 75% RH for 1 month, glass bottle, covered
Description: The storage stability as used herein can be evaluated by measuring the change in the amount of related substances derived from compound A when the pharmaceutical composition for oral administration is stored under certain storage conditions. For example, after the pharmaceutical composition for oral administration is stored under certain conditions, the total amount of related substances of compound A contained in the pharmaceutical composition for oral administration, or a specific related substance of compound A is measured. […] The percentage (%) of the total peak area of related substances with respect to the sum of all peak areas including the peak area of compound A are calculated, and is compared with the value before storage to calculate the amount of change (the amount of increase)(%). Alternatively, as shown in Experimental Example 3 described below, the percentage (%) of the peak area of related substance A with respect to the sum of all peak areas obtained in the same manner is calculated, and it is also possible to evaluate the storage stability by the change over time of related substance A.
The physical mixtures obtained in Example 1 and Comparative Example 1 were placed in glass bottles, covered, and stored at 40° C., 75% RH for 1 month, and the total amount of related substances before and after storage was measured by the method described below. […]

[2] = Solubility of compound A in Japanese Pharmacopoeia dissolution test fluids; type: physicochemical; details: for solubility: Seventeenth Edition
Description: When compound A was formulated, the solubility of compound A was confirmed based on a Dissolution Test of the Japanese Pharmacopoeia, Seventeenth Edition, and there was a large difference between an acidic pH range and a neutral pH range.

Cc1nc(CN2CCS(=O)(=O)CC2)c2cc(C3CCC(C)(C)CC3)sc2n1 [Compound A, 6-(4,4-Dimethylcyclohexyl)-4-[(1,1-dioxo-1λ^6-thiomorpholin-4-yl)methyl]-2-methylthieno[2,3-d]pyrimidine]
Increased amount of total related substances (%) (n = 2) [1]: 0.00% | Increased amount of total related substances (%) (n = 2) ([1]; listed as compound A): did not increase | difference of solubility between acidic and neutral pH range ([2]; first fluid vs second fluid): approximately 30 times | solubility ([2]; pH 1.2, simulated gastric fluid, first fluid for a Dissolution Test of the Japanese Pharmacopoeia, read-out: solubility in an acidic pH range): ~41 µg/mL (≈ 101 µM) | solubility ([2]; pH 6.8, aqueous buffer, second fluid for a Dissolution Test of the Japanese Pharmacopoeia, read-out: solubility at a neutral pH range): ~1.2 µg/mL (≈ 2.94 µM)

Source: US20210346392A1, “PHARMACEUTICAL COMPOSITION FOR ORAL ADMINISTRATION” (ASTELLAS PHARMA INC., priority 2018, published 2021)
